Measurements published in patent US9255090B2, “Heterocyclyl derivatives and their use as prostaglandin D2 receptor modulators” (Actelion Pharmaceuticals Ltd., priority 2012, dated 2016).
pIC50: −log10 of the molar value.

Legend:
[1] = biological target: hCRTH2 receptor (Homo sapiens (Human), UniProt Q9Y5Y4); assay: hCRTH2 receptor membranes radioligand (3H-PGD2) displacement assay; format: binding; conditions: 3H-PGD2 radioligand displacement, HEK293-hCRTH2 membranes
How it was run: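 HEK293-hCRTH2 membranes, 20 μg/well; 3H-PGD2 added at 2.5 nM; binding buffer 50 mM Tris, 10 mM MnCl2, 1 mM EDTA, pH 7.0; 90 min RT; GF/C filtration, scintillation count. Nonspecific binding: PGD2 at […].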

[2] = tested on: eosinophils; assay: Eosinophil shape change assay with human plasma; format: cell-based; conditions: Homo sapiens, Eosinophil, human plasma (50%), PGD2 100 nM activation, antagonistic activity
Excerpt: Eosinophil Shape Change Assay with Human Plasma
After obtaining informed consent, blood samples were drawn by venipuncture according to the protocol approved by the ethics committee of Basel, Switzerland. Polymorphonuclear leukocytes (containing eosinophils, basophils and neutrophils) were isolated using the Polymorphprep™ method (Axis-Shield). […] The polymorphonuclear cell fraction was harvested and depleted for erythrocytes by hypotonic saline lysis.
The polymorphonuclear cells were resuspended in assay buffer (1×PBS with Ca^2+/Mg^2+ supplemented with 0.1% BSA, 10 mM HEPES, and 10 mM Glucose, pH 7.4) at 5×10^6 cells/ml and stained with anti-CD49d-APC ((APC=Allophycocyanin) for 1 hour at RT. Test compounds, at various concentrations, were preincubated 10 min in human plasma (anticoagulated with a thrombin inhibitor). Then, human plasma was added to the polymorphonuclear cells to 50% of final assay volume with polymorphonuclear cells at 4×10^6 cells/ml. After incubation for 10 minutes at 37° C., the polymorphonuclear cells were activated for 5 min at 37° C. by addition of PGD2 at 100 nM final concentration. Activation was stopped by addition of 0.5 ml paraformaldehyde (1%).
Immediately after fixation with paraformaldehyde, the samples were analyzed by FACSCanto flow cytometer (BD Biosciences) and target cells were identified by their forward-scatter (FSC) and side-scatter (SSC) characteristics. Eosinophils were identified by the anti-CD49d-APC signal and their characteristic side-scatter (SSC) profile. Shape change responses, indicative of eosinophil activation, were quantified as the percent of cells with an increased forward-scatter.

hCRTH2 receptor, sequence (Q9Y5Y4 whole entry): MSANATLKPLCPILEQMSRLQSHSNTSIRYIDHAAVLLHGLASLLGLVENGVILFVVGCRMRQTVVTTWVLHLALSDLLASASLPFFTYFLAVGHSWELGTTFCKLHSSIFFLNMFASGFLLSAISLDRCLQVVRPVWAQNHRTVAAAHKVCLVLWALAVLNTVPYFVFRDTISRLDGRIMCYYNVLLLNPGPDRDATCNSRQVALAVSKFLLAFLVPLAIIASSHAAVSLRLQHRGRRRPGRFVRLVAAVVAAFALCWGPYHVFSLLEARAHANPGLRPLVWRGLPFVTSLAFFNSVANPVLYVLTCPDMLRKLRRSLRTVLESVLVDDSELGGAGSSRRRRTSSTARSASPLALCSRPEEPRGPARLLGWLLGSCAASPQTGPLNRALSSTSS

| SMILES | pIC50 [1] | pIC50 [2] |
| --- | --- | --- |
| CC(C)Oc1ccc(CC(=O)O)cc1-c1ccc(F)c2c1CN(C(=O)OCc1ccccc1)CC2 [Example 22, 8-(5-Carboxymethyl-2-isopropoxy-phenyl)-5-fluoro-3,4-dihydro-1H-isoquinoline-2-carboxylic acid benzyl ester] | 8.33 | 7.42 |
| COc1ccc(CC(=O)O)cc1-c1ccc(F)c2c1CN(C(=O)[C@@H]1C[C@H]1c1ccccc1)CC2 [Example 80, {3-[5-Fluoro-2-((1R,2R)-2-phenyl-cyclopropanecarbonyl)-1,2,3,4-tetrahydro-isoquinolin-8-yl]-4-methoxy-phenyl}-acetic acid] | 8.72 | 8.33 |
| COc1ccc(CC(=O)O)cc1-c1cc(F)cc2c1CN(C(=O)OCc1ccccc1)CC2 [Example 32, 8-(5-Carboxymethyl-2-methoxy-phenyl)-6-fluoro-3,4-dihydro-1H-isoquinoline-2-carboxylic acid benzyl ester] | 7.98 | 6.45 |
| COc1ccc(CC(=O)O)cc1-c1ccc(Cl)c2c1CN(C(=O)[C@@H]1C[C@H]1c1cccc(F)c1)CC2 [Example 69, (3-{5-Chloro-2-[(1R,2R)-2-(3-fluoro-phenyl)-cyclopropanecarbonyl]-1,2,3,4-tetrahydro-isoquinolin-8-yl}-4-methoxy-phenyl)-acetic acid] | 8.02 | 7.11 |
| CC(C)COc1ccc(CC(=O)O)cc1-c1ccc(F)c2c1CN(C(=O)OCc1ccccc1)CC2 [Example 198, 8-(5-Carboxymethyl-2-isobutoxy-phenyl)-5-fluoro-3,4-dihydro-1H-isoquinoline-2-carboxylic acid benzyl ester] | 8.89 | 7.14 |
| O=C(O)Cc1ccc(OC(F)(F)F)c(-c2ccc(F)c3c2CN(C(=O)OCc2ccccc2)CC3)c1 [Example 21, 8-(5-Carboxymethyl-2-trifluoromethoxy-phenyl)-5-fluoro-3,4-dihydro-1H-isoquinoline-2-carboxylic acid benzyl ester] | 8.66 | 7.19 |
| COc1ccc(CC(=O)O)cc1-c1ccc(C(F)(F)F)c2c1CN(C(=O)[C@@H]1C[C@H]1c1ccccc1)CC2 (racemic) [Example 83, (±)-{4-Methoxy-3-[2-(trans-2-phenyl-cyclopropanecarbonyl)-5-trifluoromethyl-1,2,3,4-tetrahydro-isoquinolin-8-yl]-phenyl}-acetic acid] | 7.58 | < 6.00 |
| COc1ccc(CC(=O)O)cc1-c1ccc(F)c2c1CN(C(=O)CCc1cn(C)c3ccccc13)CC2 [Example 62, (3-{5-Fluoro-2-[3-(1-methyl-1H-indol-3-yl)-propionyl]-1,2,3,4-tetrahydro-isoquinolin-8-yl}-4-methoxy-phenyl)-acetic acid] | 8.32 | 6.97 |
| COc1ccc(CC(=O)O)cc1-c1ccc(F)c2c1CN(C(=O)OCc1ccccc1F)CC2 [Example 146, 8-(5-Carboxymethyl-2-methoxy-phenyl)-5-fluoro-3,4-dihydro-1H-isoquinoline-2-carboxylic acid 2-fluoro-benzyl ester] | 8.51 | 6.58 |

Continued, values first:

| pIC50 [1] | pIC50 [2] | SMILES |
| --- | --- | --- |
| 8.09 | 6.99 | CCOc1cc(CC(=O)O)ccc1-c1ccc(F)c2c1CN(C(=O)C(C)Cc1ccccn1)CC2 (racemic) [Example 352] |
| 8.89 | 7.01 | COc1cc(CC(=O)O)ccc1-c1ccc(F)c2c1CN(C(=O)CCCc1ccccc1F)CC2 [Example 185, (4-{5-Fluoro-2-[4-(2-fluoro-phenyl)-butyryl]-1,2,3,4-tetrahydro-isoquinolin-8-yl}-3-methoxy-phenyl)-acetic acid] |
| 8.77 | 7.82 | CCOc1ccc(CC(=O)O)cc1-c1ccc(F)c2c1CN(C(=O)OCc1ccc(F)cc1F)CC2 [Example 403, 8-(5-Carboxymethyl-2-ethoxy-phenyl)-5-fluoro-3,4-dihydro-1H-isoquinoline-2-carboxylic acid 2,4-difluoro-benzyl ester] |
| 8.33 | 7.54 | CCOc1ccc(CC(=O)O)cc1-c1ccc(F)c2c1CN(C(=O)OCc1cccc(F)c1)CC2 [Example 399, 8-(5-Carboxymethyl-2-ethoxy-phenyl)-5-fluoro-3,4-dihydro-1H-isoquinoline-2-carboxylic acid 3-fluoro-benzyl ester] |
| 8.70 | 8.10 | CCOc1cc(CC(=O)O)ccc1-c1ccc(F)c2c1CN(C(=O)OCc1cc(Cl)ccc1F)CC2 [Example 408, 8-(4-Carboxymethyl-2-ethoxy-phenyl)-5-fluoro-3,4-dihydro-1H-isoquinoline-2-carboxylic acid 5-chloro-2-fluoro-benzyl ester] |
| 8.38 | 7.68 | CCOc1ccc(CC(=O)O)cc1-c1ccc(F)c2c1CN(C(=O)CCc1cccc(C)n1)CC2 [Example 329, (4-Ethoxy-3-{5-fluoro-2-[3-(6-methyl-pyridin-2-yl)-propionyl]-1,2,3,4-tetrahydro-isoquinolin-8-yl}-phenyl)-acetic acid] |
| 8.35 | 6.93 | COc1cc(CC(=O)O)ccc1-c1ccc(F)c2c1CN(C(=O)OCc1ccccc1)CC2 [Example 166, 8-(4-Carboxymethyl-2-methoxy-phenyl)-5-fluoro-3,4-dihydro-1H-isoquinoline-2-carboxylic acid benzyl ester] |
| 9.00 | 7.89 | O=C(O)Cc1ccc(-c2ccc(F)c3c2CN(C(=O)OCc2ccccc2)CC3)c(OCC(F)(F)F)c1 [Example 411, 8-[4-Carboxymethyl-2-(2,2,2-trifluoro-ethoxy)-phenyl]-5-fluoro-3,4-dihydro-1H-isoquinoline-2-carboxylic acid benzyl ester] |
| 8.09 | 8.05 | CCOc1ccc(CC(=O)O)cc1-c1ccc(F)c2c1CN(C(=O)CC1CCCc3cccnc31)CC2 (racemic) [Example 350] |
| 7.89 | 7.37 | CCOc1ccc(CC(=O)O)cc1-c1ccc(F)c2c1CN(C(=O)CC1CCOc3ccccc31)CC2 (racemic) [Example 226] |
| 8.72 | 7.68 | CCOc1ccc(CC(=O)O)cc1-c1ccc(F)c2c1CN(C(=O)CC1(c3ccc(F)cc3)CC1)CC2 [Example 277, [4-Ethoxy-3-(5-fluoro-2-{2-[1-(4-fluoro-phenyl)-cyclopropyl]-acetyl}-1,2,3,4-tetrahydro-isoquinolin-8-yl)-phenyl]-acetic acid] |
| 8.57 | 7.70 | CCOc1cc(CC(=O)O)ccc1-c1ccc(F)c2c1CN(C(=O)OCc1cccc(F)c1)CC2 [Example 405, 8-(4-Carboxymethyl-2-ethoxy-phenyl)-5-fluoro-3,4-dihydro-1H-isoquinoline-2-carboxylic acid 3-fluoro-benzyl ester] |
| 8.37 | 7.70 | CCOc1ccc(CC(=O)O)cc1-c1ccc(F)c2c1CN(C(=O)OCc1cc(Cl)ccc1F)CC2 [Example 402, 8-(5-Carboxymethyl-2-ethoxy-phenyl)-5-fluoro-3,4-dihydro-1H-isoquinoline-2-carboxylic acid 5-chloro-2-fluoro-benzyl ester] |
| 8.21 | 7.52 | COc1cc(CC(=O)O)ccc1-c1ccc(F)c2c1CN(C(=O)CC1CCc3ccccc31)CC2 (racemic) [Example 360] |
